Reference: patent publication US20230382920A1, “SHMT Inhibitors” (The Trustees of Princeton University, priority 2020, published 2023)

Key:
[1] = Mouse liver microsome assay (metabolic stability); assay type: in vitro ADME; settings: mouse liver microsomes; for half-life at 2 µM: in vitro half-life; for microsomal CLint at 2 µM: in vitro intrinsic clearance, read-out: Relative Clint
Experimental: Example 6. Mouse Liver Microsome Assay
Metabolic stability of several compounds in mouse liver microsomes was tested. Briefly, a master solution was prepared according to Table 31.
Two separate experiments were performed: an experiment with cofactors and an experiment without cofactors. In the experiment with cofactors 40 μL of 10 mM NADPH and 40 μL of 20 mM UDPGA were added to the incubations. The final concentrations of microsomes, NADPH and UDPGA were 0.5 mg/mL, 1 mM and 2 mM, respectively. In the experiment without cofactors 10 μL of 20 mg/mL liver microsomes and 80 μL of ultra-pure H2O were added to the incubations. The final concentration of microsomes was 0.5 mg/mL. The mixture was pre-warmed at 37° C. for 5 minutes.
The reaction was started with the addition of 4 μL of 200 μM control compound or test compound solutions. Verapamil was used as positive control in this study. The final concentration of test compound was 2 μM and the final concentration of control compound was 1 μM. The incubation solution was incubated in water bath at 37° C.
Aliquots of 50 μL were taken from the reaction solution at 0.5, 5, 15, 30, 45 and 60 minutes. The reaction was stopped by the addition of five volumes of cold acetonitrile with IS (100 nM alprazolam, 200 nM caffeine and 100 nM tolbutamide). Samples were centrifuged at 3,220 g for 40 minutes. Aliquot of 100 μL of the supernatant was mixed with 100 μL of ultra-pure H2O and then subject to LC-MS/MS analysis.
All calculations were carried out using Microsoft Excel. Peak areas were determined from extracted ion chromatograms. The slope value, k, was determined by linear regression of the natural logarithm of the remaining percentage of the parent drug versus incubation time curve. The in vitro half-life (in vitro t½) was determined from the slope value:
Conversion of the in vitro t1/2(min) into the in vitro intrinsic clearance (in vitro CLint, in μL/min/mg protein) was done using the following equation (mean of duplicate determinations): […]

HCT116 [2] = test: HCT116 growth inhibition assay; assay type: cell-based; settings: without formate
Experimental: (§1) Example 5. HCT116 Growth Inhibition and Formate Rescue Assays
(§2) 3,000 Cells were plated in each well of a 96-well plate with 80 μL of DMEM media supplemented with 10% dFBS, and incubated for 24 hours. Drugs with or without sodium formate (1 mM) were then added to each well to a final volume of 100 μL. Cell growth was measured as fluorescence intensity by resazurin after four days. In short, resazurin was added to each well to a final concentration of 10 μg·mL^−1. After incubation for one hour, fluorescence was measured by a Synergy HT plate reader (BioTek Instruments).

HCT116 [3] = test: HCT116 formate rescue assay (with sodium formate 1 mM); assay type: cell-based; settings: HCT116 growth
Experimental: as §1, §2

Compound | half-life at 2 µM [1] | microsomal CLint at 2 µM [1] | IC50 (HCT116 [2]) | IC50 (HCT116 [3]; Homo sapiens, HCT-116, 96 h) | IC50 (HCT116 [3])
Cc1n[nH]c2c1C(c1cc(C#C[C@@H]3C[C@H]3CO)cc(CO)c1)(C(C)C)C(C#N)=C(N)O2 (some centres unmarked) [KDG-0136] | 10 to 20 min | ≤ 70 µL/min/mg | C″ | > 5 µM | 
Cc1n[nH]c2c1C(c1cc(C#C[C@H]3C[C@@H](C(C)(C)O)C3)cc(C(C)(C)O)c1)(C(C)C)C(C#N)=C(N)O2 (some centres unmarked) [KDG-0261-100] | < 5 min | > 250 µL/min/mg | C″ | > 5 µM | 
Cc1n[nH]c2c1C(c1cc(C#C[C@H]3C[C@H](COC(N)=O)C3)cc(C(C)(C)O)c1)(C(C)C)C(C#N)=C(N)O2 (some centres unmarked) [KDG-0262] | < 5 min |  | C″ |  | 
Cc1n[nH]c2c1C(c1cc(C#C[C@H]3C[C@H](C(=O)N(C)C)C3)cc(CO)c1)(C(C)C)C(C#N)=C(N)O2 (some centres unmarked) [KDG-0265] | 5 to 10 min |  | C″ |  | 
Cc1n[nH]c2c1C(c1cc(C#C[C@H]3CC[C@@](C)(O)CC3)cc(CO)c1)(C(C)C)C(C#N)=C(N)O2 (some centres unmarked) [KDG-0270] | < 5 min |  | B″ |  | 
Cc1n[nH]c2c1C(c1cc(C#CC3CCOCC3)cc(CO)c1)(C(C)C)C(C#N)=C(N)O2 (centres unmarked) [KDG-0273] | < 5 min |  | B″ |  | 
Cc1n[nH]c2c1C(c1cc(C#CC3CCCN3C(=O)OC(C)(C)C)cc(CO)c1)(C(C)C)C(C#N)=C(N)O2 (centres unmarked) [KDG-0280] | < 5 min | > 250 µL/min/mg | B″ | > 5 µM | 
Cc1n[nH]c2c1C(c1cc(C#CC3CCN(C(=O)OC(C)(C)C)CC3)cc(CO)c1)(C(C)C)C(C#N)=C(N)O2 (centres unmarked) [KDG-0289] | 5 to 10 min | 100 to 250 µL/min/mg | A″ | < 0.1 µM | 
Cc1n[nH]c2c1C(c1cc(C#CC3(C)CCN(C(=O)OC(C)(C)C)CC3)cc(CO)c1)(C(C)C)C(C#N)=C(N)O2 (centres unmarked) [KDG-0296] | 5 to 10 min | 100 to 250 µL/min/mg | C″ | < 0.1 µM | 
Cc1n[nH]c2c1C(c1cc(C#CC3(F)CCN(C(=O)OC(C)(C)C)CC3)cc(CO)c1)(C(C)C)C(C#N)=C(N)O2 (centres unmarked) [KDG-0297] | 5 to 10 min | 100 to 250 µL/min/mg | B″ | > 5 µM | 
Cc1n[nH]c2c1[C@](c1cc(C#CC3(C(F)(F)F)CN(C(=O)OC(C)(C)C)C3)cc(CO)c1)(C(C)C)C(C#N)=C(N)O2 [KDG-0301] | ≥ 20 min | ≤ 70 µL/min/mg | A″ | > 5 µM | 
COC(=O)N1CC(F)(C#Cc2cc(CO)cc([C@@]3(C(C)C)C(C#N)=C(N)Oc4[nH]nc(C)c43)c2)C1 [KDG-0313] | ≥ 20 min | ≤ 70 µL/min/mg | B″ | > 5 µM | 
Cc1n[nH]c2c1C(c1cc(C#C[C@H]3CC[C@@H](NC(=O)OC(C)(C)C)CC3)cc(CO)c1)(C(C)C)C(C#N)=C(N)O2 (some centres unmarked) [KDG-0321] | < 5 min | > 250 µL/min/mg | A″ | < 0.1 µM | 
Cc1n[nH]c2c1C(c1cc(C#CC3CN(C(=O)OC(C)(C)C)C3)cc(CF)c1)(C(C)C)C(C#N)=C(N)O2 (centres unmarked) [KDG-0345] | 5 to 10 min | 100 to 250 µL/min/mg | A″ |  | 
Cc1n[nH]c2c1C(c1cc(C#C[C@H]3C[C@@H](NC(=O)OC(C)(C)C)C3)cc(CO)c1)(C(C)C)C(C#N)=C(N)O2 (stereo partly drawn) [KDG-0388-0pk2, tert-butyl N-[(1s,3s)-3-(2-[3-[(4R)-6-amino-5-cyano-4-isopropyl-3-methyl-1H-pyrano[2,3-c]pyrazol-4-yl]-5-(hydroxymethyl)phenyl]ethynyl)cyclobutyl]carbamate] |  |  | A″ |  | > 5 µM
Cc1n[nH]c2c1[C@](c1cc(C#C[C@H]3C[C@@H](NC(=O)OC(C)(C)C)C3)cc(CO)c1)(C(C)C)C(C#N)=C(N)O2 [KDG-0388-Opk1, tert-butyl N-[(1s,3s)-3-(2-[3-[(4S)-6-amino-5-cyano-4-isopropyl-3-methyl-1H-pyrano[2,3-c]pyrazol-4-yl]-5-(hydroxymethyl)phenyl]ethynyl)cyclobutyl]carbamate] |  |  | D″ | < 0.1 µM | 
Cc1n[nH]c2c1C(c1cc(C#CC3CN(C(=O)NC(C)(C)C)C3)cc(CO)c1)(C(C)C)C(C#N)=C(N)O2 (centres unmarked) [KDG-0412] | 10 to 20 min | 70 to 100 µL/min/mg | D″ | > 5 µM | 
[2H]C([2H])(O)c1cc(C#CC2CN(C(=O)OC(C)(C)C)C2)cc(C2(C(C)C)C(C#N)=C(N)Oc3[nH]nc(C)c32)c1 (centres unmarked) [KDG-0413] | 10 to 20 min | 70 to 100 µL/min/mg | B″ | < 0.1 µM | 
Cc1c[nH]c2c1C(c1cc(CO)cc(-c3ccc(C4CN(C(=O)OC(C)(C)C)C4)cc3)c1)(C(C)C)C(C#N)=C(N)O2 (centres unmarked) [KDG-0453] | 10 to 20 min | 70 to 100 µL/min/mg | A″ | < 0.1 µM | 
Cc1nnc(N2CC(C#Cc3cc(CO)cc(C4(C(C)C)C(C#N)=C(N)Oc5[nH]nc(C)c54)c3)C2)o1 (centres unmarked) [KDG-0472] | ≥ 20 min | ≤ 70 µL/min/mg | C″ | < 0.1 µM | 
Cc1nnc(N2CCC(C#Cc3cc(CO)cc(C4(C(C)C)C(C#N)=C(N)Oc5[nH]nc(C)c54)c3)CC2)o1 (centres unmarked) [KDG-0478] | 5 to 10 min | 70 to 100 µL/min/mg | C″ | > 5 µM | 
Cc1n[nH]c2c1C(c1cc(C#C[C@@H]3CC[C@@H]3CNC(=O)OC(C)(C)C)cc(CO)c1)(C(C)C)C(C#N)=C(N)O2 (some centres unmarked) [KDG-0490] | < 5 min |  | B″ |  | 
Cc1n[nH]c2c1C(c1cc(C#CC34CC(NC(=O)OC(C)(C)C)(C3)C4)cc(CO)c1)(C(C)C)C(C#N)=C(N)O2 (centres unmarked) [KDG-0502, tert-butyl N-[3-[2-(3-[6-amino-5-cyano-4-isopropyl-3-methyl-1H-pyrano[2,3-c]pyrazol-4-yl]-5-(hydroxymethyl)phenyl)ethynyl]bicyclo[1.1.1]pentan-1-yl]carbamate] | ≥ 20 min | ≤ 70 µL/min/mg | B″ | < 0.1 µM | 
Cc1n[nH]c2c1C(c1cc(C#C[C@H]3CC[C@@H](NC(=O)OC(C)(C)C)C3)cc(CO)c1)(C(C)C)C(C#N)=C(N)O2 (some centres unmarked) [KDG-0505] | < 5 min |  | A″ |  | 
Cc1n[nH]c2c1C(c1cc(C#C[C@H]3CC[C@H](NC(=O)OC(C)(C)C)C3)cc(CO)c1)(C(C)C)C(C#N)=C(N)O2 (some centres unmarked) [KDG-0506] | 5 to 10 min |  | B″ |  | 
Cc1n[nH]c2c1C(c1cc(C#N)cc(C#CC3CN(C(=O)OC(C)(C)C)C3)c1)(C(C)C)C(C#N)=C(N)O2 (centres unmarked) [KDG-0543] | 10 to 20 min |  | B″ |  | 
